How the values were obtained:
[1] = tested on: GLI1-transfected WM-115, SK-MEL-2 and SK-MEL-5; experiment: GLI1-transfection enhanced BrdU incorporation, treatment with inhibitors; format: cell-based, human; conditions: 48 h treatment
Description: (§1) Commercial N-SHH (R&D Systems) was used at 100 nM. 5E1 anti-SHH blocking antibody (Hybridoma Bank, University of Iowa) was used at 10 μg/ml. Forskolin (FK) and 1,9-dideoxyforskolin (ddFK; Sigma) were used at 50 μM. […] MEK-1 (U0126; Promega), EGFR (AG1478; Biosource) and AKT (SH6; Alexis corporation) inhibitors were used at 1, 10, and 40 μM, respectively, dissolved in DMSO. Drug treatments were for 48 h in 2.5% serum. BrdU (Sigma) was pulsed at 4 μg/ml for 2 h before fixation followed by immunodetection with anti-BrdU antibodies (BD Biosciences). The number of viable cells was assessed by Trypan blue exclusion (Promega).

[2] = tested on: human melanoma primary cultures and cell lines; experiment: BrdU incorporation in melanoma primary cultures and cell lines; format: cell-based; conditions: 48 h; all four melanoma cell lines tested and Me-3
Description: (§2) Human foreskin melanocytes (Promocell) were grown in serum-free M2 medium (Promocell). WM-115, SK-MEL-2, SK-MEL-5, MeWo and COS7 cell lines (ATCC) were grown as specified. Tumors were chopped, incubated in E-MEM (Sigma) containing collagenase A (300 U/ml, Worthington) and hyaluronidase (100 U/ml, Sigma), mechanically dissociated and plated in E-MEM with 10% FBS, 1 mM sodium pyruvate (GIBCO) and 1 ng/ml EGF (GIBCO). […] All melanoma samples and BCC were obtained following approved protocols.
as §1

[3] = tested on: EJ-1 human bladder carcinoma; conditions: in vivo; cited from earlier work
[4] = tested on: HRAS^V12G or NRAS^Q61K transfected WM-115 and SK-Mel2 cells; experiment: oncogenic RAS-transfection enhanced BrdU incorporation (Example 2); format: cell-based, human
Description: Forskolin (FK) and 1,9-dideoxyforskolin (ddFK; Sigma) were used at 50 μM. MEK-1 (U0126; Promega), and AKT (SH6; Alexis corporation) inhibitors were used at 1 and 40 μM, respectively, dissolved in DMSO. U0126 and SH6 were used for 1 h, 48 h post-transfection. Leptomycin B (LMB; Sigma) was used at 5 nM for 6 h, 48 h post-transfection. BrdU (Sigma) was pulsed at 4 μg/ml for 2 h before fixation followed by immunodetection with anti-BrdU antibodies (BD Biosciences). The number of viable cells was assessed by Trypan blue exclusion (Promega). […] (SEQ ID NO: 57) (target-validated from Ambion). […] SEQ ID NO: 58) (Sanchez, P. et al. Inhibition of prostate cancer proliferation by interference with SONIC HEDGEHOG-GLI1 signaling. Proc. Natl. Acad. Sci. USA. 101, 12561-12566 (2004)). siRNA transfections (0.2 μM) were performed with Oligofectamine (Invitrogen) for 48 h.
Cells were transfected (3 μg/p35 plate) with myc-tagged full-length CMV expression vectors with FUGENE (Roche). Transfections were at equimolar amounts unless otherwise specified with combinations of pCS2-Myc-tagged human GLI1, GLI3, GLI3R (GLI3C′ΔClaI), frog Gli2R (Gli2C′) (Ruiz i Altaba, A. Gli proteins encode context-dependent positive and negative functions: implications for development and disease. Development 126, 3205-3216 (1999), pCMV-HA-tagged GLI1 (ref. 20), HRAS^V12G (from A. Pellicer), NRAS^Q61K (Ackermann, J. et al. Metastasizing melanoma formation caused by expression of activated N-RasQ61K on an INK4a-deficient background. Cancer Res. 65, 4005-4011 (2005)), activated (myristoylated) myc-tagged AKT1 (Upstate), activated MEK1 (p45MAPKK^S222D; from J. Pouyssegur), Myc-tagged SUFUH (Kogerman, P. et al. Mammalian suppressor-of-fused modulates nuclear-cytoplasmic shuttling of Gli-1. Nat Cell Biol. 1, 312-319 (1999)), and pCMV-eGFP or pCMV-lacZ.

[5] = tested on: Nude Harlan Sprague-Dawley Mice/lung (A-549, Calu-1) tumors; conditions: 70 mg/kg/d; cited from earlier work
Nude mice/HIG3T3 = conditions: nude mice transplanted with activated H-Ras-transformed HIG3T3 cells; cited from earlier work
[6] = tested on: GLI1 transcriptional activity; experiment: GLI luciferase reporter assay (7 GLI binding site reporter) in COS7 cells; format: cell-based, monkey
[7] = tested on: ras-transformed rat kidney cell; conditions: cited from earlier work
human cancer cells = conditions: cited from earlier work
[8] = tested on: NRAS^Q61K mouse melanoma primary cultures; experiment: BrdU incorporation in primary cultures of Tyr-NRAS^Q61K; Ink4a−/− mouse melanomas; format: cell-based; conditions: 10 μM, 48 h
Description: WM-115, SK-MEL-2 and COS7 cell lines (ATCC) were grown according to the specifications of the provider. The primary Me-3 melanoma (Stecca, B. et al. Melanocyte proliferation and melanoma growth, recurrence and metastasis require sustained SONIC HEDGEHOG-GLI signaling. Submitted. (2006)) was grown in E-MEM with 10% FBS (Hyclone), 1 mM sodium pyruvate (GIBCO) and 1 ng/ml EGF (GIBCO). Proliferating human melanocytes from foreskin (Promocell) were grown in M2 media (Promocell). Melanomas from ±6 month-old Tyr→NRAS^Q61K; Ink4a^−/− mice on a light coat color Dct^−/− background^13 were collected from the skin and lymph nodes. Tumors were dissociated and grown in E-MEM with 10% FBS, 1 mM sodium pyruvate (GIBCO) and 1 ng/ml EGF (GIBCO). Mouse embryonic fibroblasts (MEFs) were prepared from E14.5 Swiss Webster mouse embryos and grown in DMEM with 10% FBS.
Forskolin (FK) and 1,9-dideoxyforskolin (ddFK; Sigma) were used at 50 μM. MEK-1 (U0126; Promega), and AKT (SH6; Alexis corporation) inhibitors were used at 1 and 40 μM, respectively, dissolved in DMSO. U0126 and SH6 were used for 1 h, 48 h post-transfection. Leptomycin B (LMB; Sigma) was used at 5 nM for 6 h, 48 h post-transfection. BrdU (Sigma) was pulsed at 4 μg/ml for 2 h before fixation followed by immunodetection with anti-BrdU antibodies (BD Biosciences). The number of viable cells was assessed by Trypan blue exclusion (Promega). […]

[9] = tested on: Proliferating melanocytes from human foreskin; experiment: BrdU incorporation in proliferating melanocytes; format: cell-based; conditions: recombinant SHH ligand, 48 h, over PBS
Description: as §2, §1

[10] = tested on: GLI1, HIP and MITFM expression; experiment: qPCR gene expression in proliferating melanocytes after SHH; format: cell-based, human; conditions: SHH treatment, 8 h, qPCR normalized to GAPDH
Description: Real-time quantitative PCR amplifications with different primers (Suppl. Materials) were carried out at 60° C. on an Opticon machine (MJ Research) using iQ™ SYBR Green supermix (Biorad) and values calculated using the standard curve method.

[11] = tested on: WM115, SK-MEL-2, SK-MEL-5 and MeWo cell lines; experiment: BrdU incorporation in melanoma cell lines; format: cell-based, human; conditions: exogenous recombinant SHH ligand, 48 h; fraction of four cell lines
Description: as §2, §1

[12] = tested on: primary cultures Me-1 to Me-5 (melanoma metastases); experiment: BrdU incorporation in melanoma primary cultures; format: cell-based, human; conditions: exogenous recombinant SHH ligand, 48 h; fraction of five primary cultures
Description: as §2, §1

## COc1cc2ncnc(Nc3cccc(Cl)c3)c2cc1OC [AG1428]
[1]
  effect on GLI1-enhanced proliferation: reversed
[2]
  BrdU incorporation: decreased BrdU incorporation

## COC(=O)[C@H](CCSC)NC(=O)[C@H](/C=C\[C@@H](/C=C/[C@@H](N)CS)C(C)C)Cc1ccccc1 [B1086]
[3]
  tumor growth: inhibit tumor growth

## C=C[C@@]1(C)CC(=O)[C@]2(O)[C@@]3(C)[C@@H](O)CCC(C)(C)[C@@H]3[C@H](O)[C@H](OC(C)=O)[C@@]2(C)O1 [Forskolin]
[4]; SK-Mel2
  inhibition of oncogenic RAS-induced proliferation: 100%
[4]; WM-115
  inhibition of oncogenic RAS-induced proliferation: ~80%

## CC(C)C[C@H](NC(=O)c1ccc(NC[C@@H](N)CS)cc1-c1cccc2ccccc12)C(=O)O [GGTI-297]
[5]
  GROWTH INHIBITION: 56%-70%

## C[C@H]([C@H](C/C=C/c1nc2ccccc2o1)c1ccc2c(c1)OCO2)N(Cc1ccc2ccccc2c1)C(=O)[C@H]1OC(C(=O)O)(C(=O)O)O[C@H]1C(=O)O [J-104871]
Nude mice/HIG3T3
  tumor growth: suppressed tumor growth

## CCC(=C/[C@H](C)C/C=C/C(C)=C/[C@@H](C)C(=O)[C@@H](C)[C@H](O)[C@@H](C)C/C(C)=C/C(=O)O)/C=C/[C@@H]1OC(=O)C=C[C@@H]1C [LMB]
[6]; GLI1 alone, 4 h treatment with LMB
  increase of GLI1-induced luciferase activity: ~3 fold
[6]; cells coexpressing GLI1 and NRAS^Q61K, LMB treatment
  further increase in GLI activity: ~3 fold

## Cc1ccc(S(=O)(=O)N[C@@H](Cc2ccccc2)C(=O)CCl)cc1 [TPCK]
[7]
  cell growth: potently inhibit
Human cancer cells
  anchorage-independent clonogenic growth: almost completely block

## C[C@H]1CC[C@]2(NC1)O[C@H]1C[C@H]3[C@@H]4CC[C@H]5C[C@@H](O)CC[C@]5(C)[C@H]4CC[C@]3(C)[C@H]1[C@@H]2C [tomatidine]
[8]
  proliferation of all 12 primary cultures: no effect

## SHH: Commercial N-SHH (R&D Systems), recombinant SHH ligand
[9]
  increase in proliferation: ⅓
[10]
  induction of GLI1 expression: 2-3 fold
  induction of HIP expression: 2-3 fold
  induction of MITFM expression: 6 fold
[11]
  cell lines with increased BrdU incorporation above a basal level (10%): ¾
[12]
  primary cultures with increased BrdU incorporation above a basal level (10%): ⅘

Reference: patent publication US7709454B2, “Methods and compositions for inhibiting tumorigenesis” (New York University, priority 1997, dated 2010)
